Source: patent publication US9481885B2, “Methods and compositions related to miR-21 and miR-29a, exosome inhibition, and cancer metastasis” (Ohio State Innovation Foundation, priority 2011, dated 2016)

Legend:
[1] = test system: TLR8-HEK-293 cells; assay: NF-κB activation in TLR8-HEK-293 cells treated with LLC exosomes, with or without Bafilomycin A; assay type: cell-based, human; conditions: TLR8-HEK-293 cells pretreated with 10 nM Bafilomycin A; P<0.0005
Method: Next, LLC cells were injected into the tails of WT and TLR7^−/− mice and the overall survival of the animals and number of lung multiplicities after necropsy was assessed. […] For the experiment with Bafilomycin A, TLR8-HEK-293 cells were seeded in a 24-well plate at a density of 200,000 cells per well. The next day cells were preincubated with 10 nM Bafilomycin A (Sigma) for 30 min and then were treated for 24 h with exosomes purified from LLC cells in the presence or absence of 10 nM Bafilomycin A. Cell supernatants were collected and harvested, and the QUANTI-Blue Assay was performed. NF-κB activity was assessed by QUANTI-Blue Assay (Invivogen). HEK-Blue-TLR7 and TLR8 293 cells allow verification of the activation of NF-κB after the stimulation of the respective TLRs. Both these cell lines were obtained by co-transfection of the TLR7 and 8 genes and an optimized secreted embryonic alkaline phosphatase reporter gene (SEAP) under the control of the […] minimal promoter fused to five NF-κB and AP-1-binding sites into HEK-293 cells. […] Levels of SEAP can be easily determined with QUANTI-Blue, a detection medium that turns purple/blue in the presence of alkaline phosphatase. […] The plate was then incubated at 37° C. for 1-3 h and SEAP levels were determined by reading the plate with a spectrophotometer at 620-655 nm (SpectraMax, Molecular Devices).

[2] = test system: LLC cells; assay: Lung multiplicities in LLC-injected B6 mice treated with GW4869, with exosome rescue; assay type: in vivo, mouse; conditions: WT B6 mice injected with LLC cells; GW4869 i.p. 1.25 mg/kg/d for 5 d
Method: Finally, to assess the role of miRNAs released from lung cancer exosomes in TLR7 activation and in the metastatic process, the expression was silenced of miR-16 or of miR-21 and -29a combined in LLC cells by Locked Nucleic Acid (LNA) anti-miRNA inhibitors. After anti-miRNA transfection, the levels of the silenced miRNAs were reduced in the exosomes derived from these cells (FIG. 7F). The transfected cells were injected into the tail vein of B6 mice, and lung multiplicities were counted. […] We further investigated which miRNAs are expressed in cancer cells and adjacent normal lung tissues in mice injected with anti-scrambled LLCs or anti-miR-21/29a LLCs. Cancer cells in lung tumors developed by mice injected with anti-scrambled LLC were positive for the anti-scrambled oligonucleotide.
The in vivo rescue experiment with LLC cells was conducted in 15 male, 7-wk-old B6 mice. Mice were injected with 1.8×10^6 LLC cells in the tail vein in 300 μL of volume (T0). After 4 d (T4), i.p. injections were started for 10 mice with GW4869 (1.25 mgkg^−1d^−1), an inhibitor of exosome secretion also able to reduce the content of miRNAs in secreted exosomes, and of five mice with DMSO (a solvent of GW4869) as a control, daily for 5 d consecutively. […] All mice were killed at T18, necropsy was performed, and lung multiplicities were counted.

| SMILES | NF-κB activation by LLC-derived exosomes in the presence of Bafilomycin A [1] | number of lung multiplicities [2] |
| --- | --- | --- |
| CO/C1=C\C(C)=C\[C@@H](C)[C@@H](O)[C@@H](C)C/C(C)=C/C=C/[C@H](OC)[C@@H]([C@@H](C)[C@@H](O)[C@H](C)[C@@]2(O)C[C@@H](O)[C@H](C)[C@@H](C(C)C)O2)OC1=O [Bafilomycin A] | significantly reduced |  |
| O=C(/C=C/c1ccc(/C=C/C(=O)Nc2ccc(C3=NCCN3)cc2)cc1)Nc1ccc(C2=NCCN2)cc1 [GW4869] |  | significantly lower |
